PubChem BioAssay (NCI)
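Tested at 5 concentrations; 48 h exposure; 96-well plates; endpoints linearly interpolated, else capped at highest concentration. TGI denotes the concentration required for complete inhibition of growth.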

Assays:
Assay in all cases: inhibition of tumour cell growth, NCI panel, 48 h
U251 CNS = system: U251 CNS
EKVX NSCLC = system: EKVX NSCLC
OVCAR-4 ovarian = system: OVCAR-4 ovarian
HCT-15 colon = system: HCT-15 colon
OVCAR-8 ovarian = system: OVCAR-8 ovarian
IGROV1 ovarian = system: IGROV1 ovarian
NCI-H23 lung = system: NCI-H23 lung
ACHN renal = system: ACHN renal
SF-295 CNS = system: SF-295 CNS
A498 renal = system: A498 renal
HCC-2998 colon = system: HCC-2998 colon
SW-620 colon = system: SW-620 colon
SK-MEL-2 melanoma = system: SK-MEL-2 melanoma
NCI-H460 lung = system: NCI-H460 lung
RXF 393 renal = system: RXF 393 renal
K-562 leukemia = system: K-562 leukemia
NCI/ADR-RES ovarian = system: NCI/ADR-RES ovarian
CCRF-CEM leukemia = system: CCRF-CEM leukemia
PC-3 prostate = system: PC-3 prostate
786-0 renal = system: 786-0 renal
MOLT-4 leukemia = system: MOLT-4 leukemia
HT29 colon = system: HT29 colon
HS 578T breast = system: HS 578T breast
SN12C renal = system: SN12C renal
SF-539 CNS = system: SF-539 CNS
COLO 205 colon = system: COLO 205 colon
SR leukemia = system: SR leukemia
KM12 colon = system: KM12 colon
UACC-257 melanoma = system: UACC-257 melanoma
SF-268 CNS = system: SF-268 CNS
A549 NSCLC = system: A549 NSCLC
NCI-H522 lung = system: NCI-H522 lung
MALME-3M melanoma = system: MALME-3M melanoma
MCF7 breast = system: MCF7 breast
UACC-62 melanoma = system: UACC-62 melanoma
SK-MEL-5 melanoma = system: SK-MEL-5 melanoma
SNB-19 CNS = system: SNB-19 CNS
HOP-92 NSCLC = system: HOP-92 NSCLC
OVCAR-3 ovarian = system: OVCAR-3 ovarian
SK-MEL-28 melanoma = system: SK-MEL-28 melanoma
OVCAR-5 ovarian = system: OVCAR-5 ovarian
MDA-MB-435 = system: MDA-MB-435
BT-549 breast = system: BT-549 breast
RPMI-8226 leukemia = system: RPMI-8226 leukemia
HOP-62 NSCLC = system: HOP-62 NSCLC
T-47D breast = system: T-47D breast
TK-10 renal = system: TK-10 renal
MDA-MB-231 breast = system: MDA-MB-231 breast
CAKI-1 renal = system: CAKI-1 renal
DU-145 prostate = system: DU-145 prostate
M14 melanoma = system: M14 melanoma
MDA-N = system: MDA-N
LOX IMVI melanoma = system: LOX IMVI melanoma
SK-OV-3 ovarian = system: SK-OV-3 ovarian
SNB-75 CNS = system: SNB-75 CNS
HCT-116 colon = system: HCT-116 colon
UO-31 renal = system: UO-31 renal
NCI-H226 lung = system: NCI-H226 lung
HL-60(TB) leukemia = system: HL-60(TB) leukemia

O=C(/C=C/c1ccc(O)c(O)c1)OCCCOC(=O)/C=C/c1ccc(O)c(O)c1
TGI (U251 CNS): > 100 µM
TGI (EKVX NSCLC): > 100 µM
TGI (OVCAR-4 ovarian): > 100 µM
TGI (HCT-15 colon): > 100 µM
TGI (OVCAR-8 ovarian): > 100 µM
TGI (IGROV1 ovarian): > 100 µM
TGI (NCI-H23 lung): 78 µM
TGI (ACHN renal): > 100 µM
TGI (SF-295 CNS): 53.6 µM
TGI (A498 renal): > 100 µM
TGI (HCC-2998 colon): > 100 µM
TGI (SW-620 colon): > 100 µM
TGI (SK-MEL-2 melanoma): > 100 µM
TGI (NCI-H460 lung): > 100 µM
TGI (RXF 393 renal): 79.6 µM
TGI (K-562 leukemia): > 100 µM
TGI (NCI/ADR-RES ovarian): > 100 µM
TGI (CCRF-CEM leukemia): > 100 µM
TGI (PC-3 prostate): > 100 µM
TGI (786-0 renal): > 100 µM
TGI (MOLT-4 leukemia): > 100 µM
TGI (HT29 colon): > 100 µM
TGI (HS 578T breast): > 100 µM
TGI (SN12C renal): > 100 µM
TGI (SF-539 CNS): > 100 µM
TGI (COLO 205 colon): > 100 µM
TGI (SR leukemia): > 100 µM
TGI (KM12 colon): > 100 µM
TGI (UACC-257 melanoma): > 100 µM
TGI (SF-268 CNS): > 100 µM
TGI (A549 NSCLC): > 100 µM
TGI (NCI-H522 lung): 40.6 µM
TGI (MALME-3M melanoma): > 100 µM
TGI (MCF7 breast): > 100 µM
TGI (UACC-62 melanoma): 49.4 µM
TGI (SK-MEL-5 melanoma): 32.9 µM
TGI (SNB-19 CNS): > 100 µM
TGI (HOP-92 NSCLC): 84.4 µM
TGI (OVCAR-3 ovarian): 32.8 µM
TGI (SK-MEL-28 melanoma): > 100 µM
TGI (OVCAR-5 ovarian): > 100 µM
TGI (MDA-MB-435): > 100 µM
TGI (BT-549 breast): > 100 µM
TGI (RPMI-8226 leukemia): > 100 µM
TGI (HOP-62 NSCLC): 67.9 µM
TGI (T-47D breast): > 100 µM
TGI (TK-10 renal): > 100 µM
TGI (MDA-MB-231 breast): > 100 µM
TGI (CAKI-1 renal): > 100 µM
TGI (DU-145 prostate): > 100 µM
TGI (M14 melanoma): 65.8 µM
TGI (MDA-N): 80.1 µM
TGI (LOX IMVI melanoma): 69.6 µM
TGI (SK-OV-3 ovarian): > 100 µM
TGI (SNB-75 CNS): > 100 µM
TGI (HCT-116 colon): > 100 µM
TGI (UO-31 renal): > 100 µM

Nc1ncnc2c1ncc(=O)n2C1CC(O)C(CO)O1 (stereo not given)
TGI (U251 CNS): > 100 µM
TGI (EKVX NSCLC): > 100 µM
TGI (OVCAR-4 ovarian): > 100 µM
TGI (HCT-15 colon): > 100 µM
TGI (OVCAR-8 ovarian): > 100 µM
TGI (IGROV1 ovarian): > 100 µM
TGI (NCI-H23 lung): > 100 µM
TGI (ACHN renal): > 100 µM
TGI (SF-295 CNS): > 100 µM
TGI (A498 renal): > 100 µM
TGI (HCC-2998 colon): > 100 µM
TGI (SW-620 colon): > 100 µM
TGI (SK-MEL-2 melanoma): > 100 µM
TGI (NCI-H460 lung): > 100 µM
TGI (K-562 leukemia): > 100 µM
TGI (NCI/ADR-RES ovarian): > 100 µM
TGI (CCRF-CEM leukemia): > 100 µM
TGI (PC-3 prostate): > 100 µM
TGI (786-0 renal): > 100 µM
TGI (MOLT-4 leukemia): > 100 µM
TGI (HT29 colon): > 100 µM
TGI (HS 578T breast): > 100 µM
TGI (SN12C renal): > 100 µM
TGI (SF-539 CNS): > 100 µM
TGI (COLO 205 colon): > 100 µM
TGI (SR leukemia): > 100 µM
TGI (KM12 colon): > 100 µM
TGI (UACC-257 melanoma): > 100 µM
TGI (SF-268 CNS): > 100 µM
TGI (A549 NSCLC): > 100 µM
TGI (NCI-H522 lung): > 100 µM
TGI (MALME-3M melanoma): > 100 µM
TGI (MCF7 breast): > 100 µM
TGI (UACC-62 melanoma): > 100 µM
TGI (SK-MEL-5 melanoma): > 100 µM
TGI (SNB-19 CNS): > 100 µM
TGI (HOP-92 NSCLC): > 100 µM
TGI (OVCAR-3 ovarian): > 100 µM
TGI (SK-MEL-28 melanoma): > 100 µM
TGI (OVCAR-5 ovarian): > 100 µM
TGI (MDA-MB-435): > 100 µM
TGI (BT-549 breast): > 100 µM
TGI (RPMI-8226 leukemia): > 100 µM
TGI (HOP-62 NSCLC): > 100 µM
TGI (T-47D breast): > 100 µM
TGI (NCI-H226 lung): > 100 µM
TGI (TK-10 renal): > 100 µM
TGI (MDA-MB-231 breast): > 100 µM
TGI (CAKI-1 renal): > 100 µM
TGI (DU-145 prostate): > 100 µM
TGI (M14 melanoma): > 100 µM
TGI (MDA-N): > 100 µM
TGI (LOX IMVI melanoma): > 100 µM
TGI (SK-OV-3 ovarian): > 100 µM
TGI (SNB-75 CNS): > 100 µM
TGI (HCT-116 colon): > 100 µM
TGI (UO-31 renal): > 100 µM

CC(C)(C)OC(=O)C1CCC/C1=N/Nc1ccc([N+](=O)[O-])cc1[N+](=O)[O-] (stereo not given)
TGI (U251 CNS): 56.1 µM
TGI (EKVX NSCLC): 89.9 µM
TGI (OVCAR-4 ovarian): > 100 µM
TGI (HCT-15 colon): > 100 µM
TGI (OVCAR-8 ovarian): > 100 µM
TGI (IGROV1 ovarian): > 100 µM
TGI (NCI-H23 lung): 63.5 µM
TGI (ACHN renal): > 100 µM
TGI (SF-295 CNS): 88.9 µM
TGI (A498 renal): 65.4 µM
TGI (HCC-2998 colon): > 100 µM
TGI (SW-620 colon): > 100 µM
TGI (NCI-H460 lung): > 100 µM
TGI (RXF 393 renal): > 100 µM
TGI (K-562 leukemia): > 100 µM
TGI (NCI/ADR-RES ovarian): > 100 µM
TGI (CCRF-CEM leukemia): > 100 µM
TGI (PC-3 prostate): > 100 µM
TGI (786-0 renal): > 100 µM
TGI (MOLT-4 leukemia): > 100 µM
TGI (HT29 colon): > 100 µM
TGI (HS 578T breast): > 100 µM
TGI (SN12C renal): > 100 µM
TGI (COLO 205 colon): > 100 µM
TGI (SR leukemia): > 100 µM
TGI (KM12 colon): > 100 µM
TGI (SF-268 CNS): > 100 µM
TGI (A549 NSCLC): > 100 µM
TGI (NCI-H522 lung): > 100 µM
TGI (MALME-3M melanoma): > 100 µM
TGI (MCF7 breast): > 100 µM
TGI (UACC-62 melanoma): > 100 µM
TGI (SK-MEL-5 melanoma): 29.3 µM
TGI (SNB-19 CNS): > 100 µM
TGI (HOP-92 NSCLC): > 100 µM
TGI (OVCAR-3 ovarian): > 100 µM
TGI (SK-MEL-28 melanoma): > 100 µM
TGI (OVCAR-5 ovarian): > 100 µM
TGI (MDA-MB-435): 53.2 µM
TGI (BT-549 breast): 93.2 µM
TGI (RPMI-8226 leukemia): > 100 µM
TGI (HOP-62 NSCLC): > 100 µM
TGI (T-47D breast): 88.1 µM
TGI (NCI-H226 lung): > 100 µM
TGI (TK-10 renal): > 100 µM
TGI (MDA-MB-231 breast): > 100 µM
TGI (CAKI-1 renal): > 100 µM
TGI (DU-145 prostate): > 100 µM
TGI (M14 melanoma): > 100 µM
TGI (HL-60(TB) leukemia): > 100 µM
TGI (MDA-N): > 100 µM
TGI (LOX IMVI melanoma): > 100 µM
TGI (SK-OV-3 ovarian): > 100 µM
TGI (SNB-75 CNS): 73.9 µM
TGI (HCT-116 colon): 78.5 µM
TGI (UO-31 renal): > 100 µM
